Here are results for five compounds from publication PMC9604868, “Evaluation of Possible Antioxidant, Anti-Hyperglycaemic, Anti-Alzheimer and Anti-Inflammatory Effects of Teucrium polium Aerial Parts (Lamiaceae)” (Life, 2022).

For orientation: IC50 means the concentration that inhibits the measured activity by half.

For test [1], the system named is carrageenan-induced paw edema. Description: Carrageenan-induced hind paw edema. As to conditions: mice, gavage, extract 10% 0.5 mL or diclofenac 10 mg/kg; for % Oedema Reduction: versus control. Background: Carrageenan injected into the paw causes an acute inflammation.
The nature of a further test: β-carotene assay. To be noted: means ± SD (n = 3). On the procedure: (§1) The antioxidant activity of T. polium L. hydroalcoholic extract was achieved using several analytical tests distinguished by their mechanism of reaction 2-diphenyl-1-picrylhydrazyl (DPPH), β-carotene and galvinoxyl radical (GOR). The reaction was initiated by mixing 0.5 mL of hydroalcoholic extract with 1 mL of DPPH (0.2 mM), β-carotene (0.5 mM) and GOR (0.1 mM) using the protocols described in references. The mixtures were left in the dark at room temperature for approximately 30 min; after that, the absorbance was measured at λmax: […], 490 and 428 nm for the mentioned tests, respectively, against a blank using a UV-vis spectrophotometer apparatus (Shimadzu UV-2450, Japan). The inhibition percentage was calculated as follows: I% = ((A0 − A1)/A0) × 100, where A0 is the absorbance of DPPH, β-carotene and GOR solutions without extracts, while A1 were the absorbance of the sample. The activity results for all tests were expressed as IC50 (half maximal inhibitory concentration) values, which have been calculated (using Microsoft Excel 2016) from an antiradical linear graph formed by the X axis, which represented extract concentration, and the Y axis, which represented their relative inhibition percentage. In addition, the antioxidant activity results were compared with three standards, BHA, BHT and vitamin, as represented in Table 1.

Test [2] can be described thus: DPPH radical scavenging assay. As to conditions: means ± SD (n = 3). On the procedure: as §1
(Loss of DPPH colour is used to gauge radical scavenging.)

The next test concerns rat renal medulla COX. Further details: method as in PMID 33802084. As to conditions: cited from earlier work.

Regarding `O=C(O)Cc1ccccc1Nc1c(Cl)cccc1Cl` [Diclofenac sodium], in test [1] (4 h after carrageenan), the “% Oedema” value stood at 20.42% and the “% Oedema Reduction” value amounted to 52.97%. Moreover, in test [1] (carrageenan-injected paw, 4 h), the “Average Paw Weight (g) Left” value was determined as 0.171 ± 0.009 g. Besides, in test [1] (uninjected paw, 4 h), the “Average Paw Weight (g) Right” value turned out to be 0.142 ± 0.001 g. The “% Oedema Reduction” value in test [1] (4 h after carrageenan, listed as diclofenac sodium) is given as 52.97%.
As to `Cc1cc(C(C)(C)C)c(O)c(C(C)(C)C)c1` [BHT, 2,6-ditert-butyl-4-methylphenol], the “β Carotene IC50” value in “β-carotene assay” was 0.91 ± 0.01 µg/mL. The “DPPH IC50” value in test [2] turned out to be 12.99 ± 0.41 µg/mL.
For the compound `Cc1c(C)c2c(c(C)c1O)CC[C@@](C)(CCC[C@H](C)CCC[C@H](C)CCCC(C)C)O2` [Vitamin E, α-Tocopherol], in test [2], the “DPPH IC50” value was determined as 15.81 ± 0.54 µg/mL.
On to `COc1ccc(O)c(C(C)(C)C)c1` [BHA, butylated hydroxyanisole], for which the “β Carotene IC50” value in “β-carotene assay” was found to be 1.05 ± 0.03 µg/mL. The “DPPH IC50” value in test [2] turned out to be 6.14 ± 0.41 µg/mL.
For `O=c1cc(-c2ccc(O)c(O)c2)oc2cc(O)cc(O)c12` [Luteolin (7), luteolin], the IC50 in the test on rat renal medulla COX is 100 to 130 µM.
